Assay results published in publication PMC12720098, “Prolintane analogs as hybrid monoamine transporter ligands: Structural determinants and species differences” (The Journal of Biological Chemistry, 2025).
Like-named read-outs stand apart in the source and are kept apart here.

Experiments:
[1] = target: T1, hSERT (Homo sapiens, UniProt P31645); test: Uptake inhibition assay ([3H]5-HT) in transfected HEK293 cells; format: cell-based
T1 construct: expressed in transfected cells
Method: (§1) HEK293 cells stably expressing human monoamine transporters hSERT, hDAT or hNET were seeded into poly-D-lysine (PDL) coated 96-well plates with a density of approximately 36,000 cells per well 1 day prior to experiments. A day after seeding, the cell medium was replaced with 200 μl Krebs-HEPES-buffer (KHB; 120 mM NaCl, 3 mM KCl, 2 mM CaCl2·2H2O, 2 mM MgCl2·6H2O, 20 mM D-glucose, pH = 7.3). The test drugs were initially dissolved in Milli-Q H2O or dimethyl sulfoxide (DMSO) at a concentration of 10 to 100 mM. Then, cells were treated with the respective concentration of the test drug diluted in KHB for 5 min as a pre-incubation step. Subsequently, in the uptake step, the solution was replaced with 50 μl/well diluted drug solution and tritiated substrate (hDAT: 0.1 μM [^3H]DA; hNET: 0.02 μM [^3H]MPP^+; hSERT: 0.1 μM [^3H]5-HT) for 1 min (hDAT, hSERT) or 3 min (hNET). After incubation, cells were immediately washed with 200 μl KHB to stop uptake. Uptake was indirectly measured by quantifying beta emission with liquid scintillation counting (Wallac 1450 MicroBeta TriLux Liquid Scintillation Counter & Lumi; GMI). Therefore, 200 μl Ultima Gold XR scintillation cocktail (PerkinElmer, MA, USA) was added to each well.
(§2) Half-maximal inhibitory concentrations (IC50) were obtained from fitting a sigmoidal dose–response ( Y=Bottom+Top−Bottom/1+10^((LogIC50−X)·HillSlope) ) in GraphPad Prism 10.3.1 (GraphPad Software Inc.). Uptake inhibition data were evaluated by one-way ANOVA followed by Tukey's multiple comparisons test. Release data were analyzed using a two-way ANOVA (batch release) or a mixed-effects model with Geisser-Greenhouse correction (time-dependent traces) employing Šidák correction for comparing differences between compounds with or without the addition of monensin.

[2] = target: T2, hNET (Homo sapiens, UniProt P23975); test: Uptake inhibition assay ([3H]MPP+) in transfected HEK293 cells; format: cell-based
T2 construct: expressed in transfected cells
T2 sequence (P23975 whole entry): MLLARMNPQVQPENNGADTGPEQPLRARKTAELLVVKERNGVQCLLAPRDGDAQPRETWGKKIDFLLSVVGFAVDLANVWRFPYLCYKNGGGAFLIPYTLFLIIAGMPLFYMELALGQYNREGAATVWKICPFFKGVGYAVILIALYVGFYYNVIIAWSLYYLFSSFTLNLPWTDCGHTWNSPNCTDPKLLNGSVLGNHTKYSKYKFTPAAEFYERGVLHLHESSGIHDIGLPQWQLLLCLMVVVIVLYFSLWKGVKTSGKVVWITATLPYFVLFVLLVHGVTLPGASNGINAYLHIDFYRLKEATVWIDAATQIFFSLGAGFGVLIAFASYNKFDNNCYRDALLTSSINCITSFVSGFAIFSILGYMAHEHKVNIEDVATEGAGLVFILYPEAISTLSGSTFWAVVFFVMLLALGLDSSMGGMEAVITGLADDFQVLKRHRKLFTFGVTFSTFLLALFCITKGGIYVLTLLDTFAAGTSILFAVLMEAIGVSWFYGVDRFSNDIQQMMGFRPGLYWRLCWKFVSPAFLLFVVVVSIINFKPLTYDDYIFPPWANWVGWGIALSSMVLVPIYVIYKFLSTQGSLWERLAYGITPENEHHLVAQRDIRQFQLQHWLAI
Method: as §1, §2

[3] = target: T3, rNET (Rattus norvegicus, UniProt Q63380); test: Uptake inhibition assay ([3H]norepinephrine) in rat brain synaptosomes; format: biochemical
T3 construct: As a means to evaluate transporter activity of prolintane analogs in native tissue preparation; from tissue; host or cells: rat brain synaptosomes (whole brain minus caudate and cerebellum)
T3 sequence (Q63380 1-617): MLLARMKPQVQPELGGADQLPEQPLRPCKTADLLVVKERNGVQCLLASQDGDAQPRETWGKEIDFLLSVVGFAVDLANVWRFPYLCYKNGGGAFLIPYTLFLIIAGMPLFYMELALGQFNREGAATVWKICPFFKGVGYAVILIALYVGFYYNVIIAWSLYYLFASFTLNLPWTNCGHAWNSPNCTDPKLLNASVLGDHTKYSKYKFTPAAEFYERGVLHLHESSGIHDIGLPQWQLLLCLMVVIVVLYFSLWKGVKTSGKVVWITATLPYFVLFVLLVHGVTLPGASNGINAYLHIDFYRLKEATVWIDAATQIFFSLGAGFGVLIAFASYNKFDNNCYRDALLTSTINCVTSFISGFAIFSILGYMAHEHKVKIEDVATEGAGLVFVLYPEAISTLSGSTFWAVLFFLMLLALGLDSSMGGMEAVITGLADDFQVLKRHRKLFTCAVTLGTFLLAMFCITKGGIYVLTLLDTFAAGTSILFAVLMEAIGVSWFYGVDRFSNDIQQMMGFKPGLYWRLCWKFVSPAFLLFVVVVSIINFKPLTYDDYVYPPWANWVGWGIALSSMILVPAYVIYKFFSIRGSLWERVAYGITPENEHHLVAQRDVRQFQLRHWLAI
Method: (§3) Rats were killed by CO2 narcosis and decapitated, then synaptosomes were prepared from brains using standard procedures. In brief, synaptosomes were prepared from caudate tissue for rat DAT (rDAT) assays, or from whole brain minus caudate and cerebellum for rat NET (rNET) and rat SERT (rSERT) assays. Brain tissue was homogenized in ice-cold 10% sucrose followed by centrifugation at 1000g for 10 min. The resulting supernatant containing crude synaptosomes was kept on ice until use in uptake or release procedures. Uptake inhibition and release assays were carried out as previously described ([62], [63]).
(§4) For uptake inhibition assays, 5 nM [^3H]dopamine, 10 nM [^3H]norepinephrine, or 5 nM [^3H]5-HT was used as the radiolabeled transmitter for rDAT, rNET, or rSERT, respectively. To optimize uptake for a single transporter, unlabeled blockers were included that prevented uptake of [^3H]transmitter by competing transporters: 50 nM GBR 12935 was added to NET and SERT assays to block DAT, 100 nM nomifensine was added to SERT assays to block NET. Uptake assays were initiated by adding 100 μl of tissue to 900 μl Krebs-phosphate buffer (126 mM NaCl, 2.4 mM KCl, 0.83 mM CaCl2, 0.8 mM MgCl2, 0.5 mM KH2PO4, 0.5 mM Na2SO4, 11.1 mM glucose, 0.05 mM pargyline, 1 mg/ml bovine serum albumin, and 1 mg/ml ascorbic acid, pH 7.4) containing test drug and [^3H]transmitter. Uptake assays were terminated by rapid vacuum filtration, and retained radioactivity was quantified with liquid scintillation counting.
(§5) Effects of test drugs on release and uptake inhibition were analyzed by nonlinear regression using GraphPad Prism 9 (GraphPad Scientific, San Diego, CA, USA). Concentration–response values for the uptake inhibition and release were fit to the equation, Y(x)=Ymin+Ymax−Ymin/1+10^((LogP50−LogX)·n) , where x is the concentration of the compound tested, Y(x) is the response measured, Ymax is the maximal response, P50 is either IC50 (the concentration that yields half-maximal uptake inhibition response) or EC50 (the concentration that yields half-maximal release response), and n is the Hill slope parameter.

[4] = target: T1, hSERT; format: cell-based; conditions: for Mean of normalized currents elicited through hSERT by drug application: normalized to 10 µM 5-HT current
Method: One day prior to recording, either native HEK293 cells or HEK293 cells stably expressing monoamine transporters were seeded at low density onto PDL-coated 35 mm dishes. Patch-clamp experiments were conducted at a holding potential of −60 mV, with substrate-induced currents recorded at room temperature (20–24 °C) using an […] amplifier and pClamp 11.2 software (MDS Analytical Technologies). During recordings, cells were continuously superfused via a DAD-12 perfusion system and an 8-tube manifold (ALA Scientific Instruments), delivering an external solution composed of 140 mM NaCl, 2.5 mM CaCl2, 3 mM KCl, 2 mM MgCl2, 20 mM glucose, and 10 mM HEPES, with pH adjusted to 7.3 using NaOH. The intracellular pipette solution, designed to mimic physiological ionic conditions, contained 133 mM potassium gluconate, 5.9 mM NaCl, 1 mM CaCl2, 0.7 mM MgCl2, 10 mM HEPES, and 10 mM EGTA, with pH set to 7.2 using KOH. Currents were filtered at 1 kHz and digitized at 10 kHz via a Digidata 1550 digitizer (MDS Analytical Technologies), followed by analysis in Clampfit 10.2 (Molecular Devices). Substance-induced currents were normalized to the current elicited by a saturating concentration of 5-HT (10 μM) of the same cell. Holding currents were subtracted, and a 50 Hz digital Gaussian low-pass filter was applied to the traces for further analysis.

[5] = target: rSERT (Rattus norvegicus, UniProt P31652); test: Uptake inhibition assay ([3H]5-HT) in rat brain synaptosomes; format: biochemical; design: As a means to evaluate transporter activity of prolintane analogs in native tissue preparation; from tissue; host or cells: rat brain synaptosomes (whole brain minus caudate and cerebellum)
Sequence of rSERT (P31652 whole entry): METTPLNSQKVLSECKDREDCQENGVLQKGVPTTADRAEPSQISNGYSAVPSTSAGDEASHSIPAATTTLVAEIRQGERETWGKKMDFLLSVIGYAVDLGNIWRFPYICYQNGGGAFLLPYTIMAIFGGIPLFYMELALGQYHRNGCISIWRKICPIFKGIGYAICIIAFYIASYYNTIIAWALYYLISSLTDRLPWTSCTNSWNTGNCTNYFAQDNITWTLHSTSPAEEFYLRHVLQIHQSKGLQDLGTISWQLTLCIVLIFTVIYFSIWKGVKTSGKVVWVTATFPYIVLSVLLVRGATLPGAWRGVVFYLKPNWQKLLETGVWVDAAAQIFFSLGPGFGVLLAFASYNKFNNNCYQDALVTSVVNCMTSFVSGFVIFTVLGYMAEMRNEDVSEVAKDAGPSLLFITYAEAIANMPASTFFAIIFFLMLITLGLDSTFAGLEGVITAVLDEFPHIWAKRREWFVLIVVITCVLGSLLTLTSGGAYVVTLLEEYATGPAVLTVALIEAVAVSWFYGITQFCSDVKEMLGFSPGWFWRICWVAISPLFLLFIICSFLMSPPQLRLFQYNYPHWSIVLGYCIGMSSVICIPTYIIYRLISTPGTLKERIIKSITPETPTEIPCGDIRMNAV
Method: as §3, §4, §5

T1 sequence (P31645 whole entry): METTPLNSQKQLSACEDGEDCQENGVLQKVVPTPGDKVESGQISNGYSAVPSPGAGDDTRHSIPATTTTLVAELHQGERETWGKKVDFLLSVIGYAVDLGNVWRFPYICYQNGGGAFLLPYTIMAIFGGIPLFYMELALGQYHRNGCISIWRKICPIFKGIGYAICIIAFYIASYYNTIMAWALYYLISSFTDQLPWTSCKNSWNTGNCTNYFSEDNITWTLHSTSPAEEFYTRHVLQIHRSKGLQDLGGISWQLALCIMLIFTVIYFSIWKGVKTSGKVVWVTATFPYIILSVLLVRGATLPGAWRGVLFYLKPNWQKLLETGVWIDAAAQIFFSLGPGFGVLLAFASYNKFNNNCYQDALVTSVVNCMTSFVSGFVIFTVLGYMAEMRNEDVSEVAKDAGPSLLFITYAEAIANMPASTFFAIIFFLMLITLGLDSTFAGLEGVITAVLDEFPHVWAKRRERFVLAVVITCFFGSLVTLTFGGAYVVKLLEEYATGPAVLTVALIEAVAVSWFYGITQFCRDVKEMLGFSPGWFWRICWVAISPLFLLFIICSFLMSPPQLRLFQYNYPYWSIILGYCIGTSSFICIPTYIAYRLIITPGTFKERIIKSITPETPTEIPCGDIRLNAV

CCCC(Cc1ccccc1F)N1CCCC1 (stereo not drawn) [2-Fluoroprolintane, 1-[1-(2-fluorophenyl)pentan-2-yl]pyrrolidine]
IC50 [1]: 35.2 ± 9.25 µM
IC50 [2]: 0.102 ± 0.022 µM
IC50 [3]: 0.063 ± 0.006 µM
Mean of normalized currents elicited through hSERT by drug application [4]: 0.28
IC50 [5]: 2.23 ± 0.152 µM

CCCC(Cc1ccccc1C)N1CCCC1 (stereo not drawn) [2-Methylprolintane, 1-[1-(2-methylphenyl)pentan-2-yl]pyrrolidine]
IC50 [1]: 4.25 ± 1.78 µM
IC50 [2]: 0.119 ± 0.049 µM
IC50 [3]: 0.138 ± 0.013 µM
Mean of normalized currents elicited through hSERT by drug application [4]: 0.386
IC50 ([5]; read-out: [3H]5-HT uptake SERT IC50, rat isoform (r), rat brain synaptosomes, mean ± SD): 0.323 ± 0.28 µM

CCCC(Cc1cccc(F)c1)N1CCCC1 (stereo not drawn) [3-Fluoroprolintane, 1-[1-(3-fluorophenyl)pentan-2-yl]pyrrolidine]
IC50 [1]: 13.5 ± 1.84 µM
IC50 [2]: 0.035 ± 0.011 µM
IC50 [3]: 0.028 ± 0.003 µM
Mean of normalized currents elicited through hSERT by drug application [4]: 0.306
IC50 [5]: 0.521 ± 0.116 µM

CCCC(Cc1cccc(C)c1)N1CCCC1 (stereo not drawn) [3-Methylprolintane, 1-[1-(3-methylphenyl)pentan-2-yl]pyrrolidine]
IC50 [1]: 2.95 ± 0.541 µM
IC50 [2]: 0.139 ± 0.033 µM
IC50 [3]: 0.062 ± 0.009 µM
Mean of normalized currents elicited through hSERT by drug application [4]: 0.354
IC50 [5]: 0.139 ± 0.014 µM

CCCC(Cc1ccc(F)cc1)N1CCCC1 (stereo not drawn) [4-Fluoroprolintane, 1-[1-(4-fluorophenyl)pentan-2-yl]pyrrolidine]
IC50 [1]: 19.6 ± 2.43 µM
IC50 [2]: 0.307 ± 0.097 µM
IC50 [3]: 0.217 ± 0.021 µM
Mean of normalized currents elicited through hSERT by drug application [4]: 0.3167
IC50 [5]: 0.884 ± 0.078 µM

CCCC(Cc1ccc(C)cc1)N1CCCC1 (stereo not drawn) [4-Methylprolintane, 1-[1-(4-methylphenyl)pentan-2-yl]pyrrolidine]
IC50 [1]: 2.56 ± 0.515 µM
inhibitory potency at hSERT compared to pyrovalerone, fold greater ([1]; pyrovalerone value ref 53): 10 fold
IC50 [2]: 0.072 ± 0.014 µM
IC50 [3]: 0.045 ± 0.005 µM
Mean of normalized currents elicited through hSERT by drug application [4]: 0.21
IC50 [5]: 0.072 ± 0.005 µM

CCCC(Cc1ccccc1)N1CCCC1 (stereo not drawn) [Prolintane, 1-(1-phenylpentan-2-yl)pyrrolidine]
IC50 [1]: 28.6 ± 4.01 µM
IC50 at hSERT, fold weaker than at hDAT and hNET ([1]; HEK293 cells): more than 500 fold
IC50 [2]: 0.059 ± 0.007 µM
IC50 [3]: 0.039 ± 0.004 µM
Mean of normalized currents elicited through hSERT by drug application [4]: 0.2567
hSERT-mediated current ([4]; prolintane 30 µM, after 5-HT washout (Fig. S2)): elicited an inward current
IC50 [5]: 2.32 ± 0.169 µM
IC50 at rSERT, fold weaker than at rDAT and rNET ([5]; rat brain synaptosomes): about 50 fold
